{"source": "patent US20260235789A1", "about": "“THERAPEUTIC LENSES FOR USE AS OCULAR BANDAGE AND SIMULTANEOUSLY FOR THE ADMINISTRATION OF EYE DROPS” (EYE PHARMA SPA, priority 2021, published 2026)", "test_system": "Salmonella typhimurium", "assay": "Bacterial proliferation assay (inhibition halo on agar plates)", "format": "cell-based", "details": "before vs after passage through the ionic therapeutic contact lenses; 2×10^9/mL bacteria on agar-coated plates; 24 hours; FIG. 4", "method": "The influence of lens interaction on the antibacterial effect of chloramphenicol was tested with a bacterial challenge using Salmonella typhimurium seeding 2×10^9/mL bacteria on agar-coated plates. An antibiotic disk was inserted in the middle of the plate to verify the inhibition halo around the dish after 24 hours. Both the chloramphenicol eye drops and the liquid suspending the therapeutic lenses for storage were tested. The antibacterial capacity of chloramphenicol was comparatively tested before and after the passage through the ionic therapeutic contact lenses according to the invention. The diameter of the clear halo around the chloramphenicol depot area (central white spot) was not different."}
{"smiles": "O=C(N[C@H](CO)[C@H](O)c1ccc([N+](=O)[O-])cc1)C(Cl)Cl", "note": "[chloramphenicol]", "values": [{"measurement": "diameter of the clear halo around the chloramphenicol depot area", "result": "not different"}]}
